# From patent US6525001B1, “Substituted pyrimidine and pyridine herbicides” (Mid-American Commercialization Corporation, priority 1997, dated 2003)
# Key:
# Assay type in all cases: in vivo
# Set-up in all cases: key: 0 is no effect; 10 is complete control
# [1] = test system: bedstraw (Galium aparine); assay: Test B pre-/postemergence
# Source text: (§1) Seeds of bedstraw (Galium aparine), blackgrass (Alopecurus myosuroides), broadleaf signalgrass (Brachiaria decumbens), cocklebur (Xanthium strumarium), corn (Zea mays), crabgrass (Digitaria sanguinalis), giant foxtail (Setaria faberii), lambsquarters (Chenopodium album), momingglory (Ipomoea hederacea), pigweed (Amaranthus retroflexus), rape (Brassica napus), soybean (Glycine max), sugar beet (Beta vulgaris), velvetleaf (Abutilon theophrasti), wheat (Triticum aestivum), wild oat (Avena fatua) and purple nutsedge (Cyperus rotundus) tubers were planted and treated preemergence with test chemicals formulated in a non-phytotoxic solvent mixture which included a surfactant.
# (§2) At the same time, these crop and weed species were also treated with postemergence applications of test chemicals formulated in the same manner. Plants ranged in height from 2 to 18 cm (1- to 4-leaf stage) for postemergence treatments. Plant species in the flood test consisted of rice (Oryza sativa), smallflower flatsedge (Cyperus difformis), duck salad (Heteranthera limosa) and bamyardgrass (Echinochloa crus-galli) grown to the 2-leaf stage for testing. Treated plants and controls were maintained in a greenhouse for twelve to sixteen days, after which all species were compared to controls and visually evaluated. Plant response ratings, summarized in Table B, are based on a scale of 0 to 10 where 0 is no effect and 10 is complete control. A dash (−) response means no test result.
# [2] = test system: blackgrass (Alopecurus myosuroides); assay: Test B pre-/postemergence
# Source text: as §1, §2
# [3] = test system: broadleaf signalgrass (Brachiaria decumbens); assay: Test B pre-/postemergence
# Source text: as §1, §2
# [4] = test system: cocklebur (Xanthium strumarium); assay: Test B pre-/postemergence
# Source text: as §1, §2
# [5] = test system: corn (Zea mays); assay: Test B pre-/postemergence
# Source text: as §1, §2
# [6] = test system: crabgrass (Digitaria sanguinalis); assay: Test B pre-/postemergence
# Source text: as §1, §2
# [7] = test system: giant foxtail (Setaria faberii); assay: Test B pre-/postemergence
# Source text: as §1, §2
# [8] = test system: momingglory (Ipomoea hederacea); assay: Test B pre-/postemergence
# Source text: as §1, §2
# [9] = test system: pigweed (Amaranthus retroflexus); assay: Test B pre-/postemergence
# Source text: as §1, §2
# [10] = test system: rape (Brassica napus); assay: Test B pre-/postemergence
# Source text: as §1, §2
# [11] = test system: soybean (Glycine max); assay: Test B pre-/postemergence
# Source text: as §1, §2
# [12] = test system: sugar beet (Beta vulgaris); assay: Test B pre-/postemergence
# Source text: as §1, §2
# [13] = test system: velvetleaf (Abutilon theophrasti); assay: Test B pre-/postemergence
# Source text: as §1, §2
# [14] = test system: wheat (Triticum aestivum); assay: Test B pre-/postemergence
# Source text: as §1, §2
# [15] = test system: wild oat (Avena fatua); assay: Test B pre-/postemergence
# Source text: as §1, §2
# [16] = test system: bamyardgrass (Echinochloa crus-galli); assay: Test B flood test
# Protocol: as §2
# [17] = test system: duck salad (Heteranthera limosa); assay: Test B flood test
# Protocol: as §2
# [18] = test system: rice (Oryza sativa); assay: Test B flood test
# Protocol: as §2
# [19] = test system: smallflower flatsedge (Cyperus difformis); assay: Test B flood test
# Protocol: as §2
# [20] = Preemergence, Rate 62 g/ha, scale of 0 to 10
# [21] = Rate 62 g/ha, Postemergence (flood test)
# [22] = Rate 125 g/ha, Postemergence section (flood test species)
# [23] = Rate 250 g/ha, Postemergence (flood test species)
structure (smiles),measurement,setting,value
CCc1cnc(-n2ccc(C(F)(F)F)n2)nc1C(=O)c1cccc(C#N)c1 [Compound 72],"Plant response rating, Bedstraw",[1]; [20],0
same,"Plant response rating, Bedstraw","[1]; Rate 250 g/ha, Postemergence",4
same,"Plant response rating, Bedstraw","[1]; Rate 250 g/ha, Preemergence",5
same,"Plant response rating, Blackgrass",[2]; [20],1
same,Blackgrass plant response rating,"[2]; Rate 62 g/ha, Postemergence",4
same,Blackgrass plant response rating,"[2]; Rate 125 g/ha, Postemergence",5
same,"Plant response rating, Blackgrass","[2]; Rate 125 g/ha, Preemergence",1
same,"Plant response rating, Blackgrass","[2]; Rate 250 g/ha, Postemergence",5
same,"Plant response rating, Blackgrass","[2]; Rate 250 g/ha, Preemergence",4
same,B. signalgrass plant response rating,"[3]; Rate 62 g/ha, Postemergence",2
same,B. signalgrass plant response rating,"[3]; Rate 62 g/ha, Preemergence",1
same,B. signalgrass plant response rating,"[3]; Rate 125 g/ha, Postemergence",4
same,"Plant response rating, B. signalgrass","[3]; Rate 125 g/ha, Preemergence",2
same,"Plant response rating, B. signalgrass","[3]; Rate 250 g/ha, Postemergence",6
same,"Plant response rating, B. signalgrass","[3]; Rate 250 g/ha, Preemergence",7
same,"Plant response rating, Cocklebur",[4]; [20],0
same,Cocklebur plant response rating,"[4]; Rate 62 g/ha, Postemergence",3
same,Cocklebur plant response rating,"[4]; Rate 125 g/ha, Postemergence",4
same,"Plant response rating, Cocklebur","[4]; Rate 125 g/ha, Preemergence",0
same,"Plant response rating, Cocklebur","[4]; Rate 250 g/ha, Postemergence",4
same,"Plant response rating, Cocklebur","[4]; Rate 250 g/ha, Preemergence",0
same,"Plant response rating, Corn",[5]; [20],3
same,Corn plant response rating,"[5]; Rate 62 g/ha, Postemergence",2
same,Corn plant response rating,"[5]; Rate 125 g/ha, Postemergence",3
same,"Plant response rating, Corn","[5]; Rate 125 g/ha, Preemergence",4
same,"Plant response rating, Corn","[5]; Rate 250 g/ha, Postemergence",5
same,"Plant response rating, Corn","[5]; Rate 250 g/ha, Preemergence",5
same,"Plant response rating, Crabgrass",[6]; [20],6
same,Crabgrass plant response rating,"[6]; Rate 62 g/ha, Postemergence",4
same,Crabgrass plant response rating,"[6]; Rate 125 g/ha, Postemergence",6
same,"Plant response rating, Crabgrass","[6]; Rate 125 g/ha, Preemergence",9
same,"Plant response rating, Crabgrass","[6]; Rate 250 g/ha, Postemergence",8
same,"Plant response rating, Crabgrass","[6]; Rate 250 g/ha, Preemergence",9
same,"Plant response rating, Giant foxtail",[7]; [20],5
same,Giant foxtail plant response rating,"[7]; Rate 62 g/ha, Postemergence",5
same,Giant foxtail plant response rating,"[7]; Rate 125 g/ha, Postemergence",6
same,"Plant response rating, Giant foxtail","[7]; Rate 125 g/ha, Preemergence",5
same,"Plant response rating, Giant foxtail","[7]; Rate 250 g/ha, Postemergence",7
same,"Plant response rating, Giant foxtail","[7]; Rate 250 g/ha, Preemergence",7
same,"Plant response rating, Morningglory",[8]; [20],2
same,Morningglory plant response rating,"[8]; Rate 125 g/ha, Postemergence",4
same,"Plant response rating, Morningglory","[8]; Rate 125 g/ha, Preemergence",3
same,"Plant response rating, Morningglory","[8]; Rate 250 g/ha, Postemergence",4
same,"Plant response rating, Morningglory","[8]; Rate 250 g/ha, Preemergence",8
same,"Plant response rating, Redroot pigweed",[9]; [20],7
same,Redroot pigweed plant response rating,"[9]; Rate 62 g/ha, Postemergence",8
same,Redroot pigweed plant response rating,"[9]; Rate 125 g/ha, Postemergence",9
same,"Plant response rating, Redroot pigweed","[9]; Rate 125 g/ha, Preemergence",9
same,"Plant response rating, Redroot pigweed","[9]; Rate 250 g/ha, Postemergence",9
same,"Plant response rating, Redroot pigweed","[9]; Rate 250 g/ha, Preemergence",9
same,"Plant response rating, Rape",[10]; [20],4
same,Rape plant response rating,"[10]; Rate 62 g/ha, Postemergence",3
same,Rape plant response rating,"[10]; Rate 125 g/ha, Postemergence",7
same,"Plant response rating, Rape","[10]; Rate 125 g/ha, Preemergence",5
same,"Plant response rating, Rape","[10]; Rate 250 g/ha, Postemergence",7
same,"Plant response rating, Rape","[10]; Rate 250 g/ha, Preemergence",9
same,"Plant response rating, Soybean",[11]; [20],0
same,Soybean plant response rating,"[11]; Rate 62 g/ha, Postemergence",2
same,Soybean plant response rating,"[11]; Rate 125 g/ha, Postemergence",2
same,"Plant response rating, Soybean","[11]; Rate 125 g/ha, Preemergence",3
same,"Plant response rating, Soybean","[11]; Rate 250 g/ha, Postemergence",5
same,"Plant response rating, Soybean","[11]; Rate 250 g/ha, Preemergence",3
same,"Plant response rating, Sugarbeets",[12]; [20],8
same,Sugarbeets plant response rating,"[12]; Rate 62 g/ha, Postemergence",9
same,Sugarbeets plant response rating,"[12]; Rate 125 g/ha, Postemergence",9
same,"Plant response rating, Sugarbeets","[12]; Rate 125 g/ha, Preemergence",10
same,"Plant response rating, Sugarbeets","[12]; Rate 250 g/ha, Postemergence",9
same,"Plant response rating, Sugarbeets","[12]; Rate 250 g/ha, Preemergence",10
same,"Plant response rating, Velvetleaf",[13]; [20],3
same,Velvetleaf plant response rating,"[13]; Rate 62 g/ha, Postemergence",2
same,Velvetleaf plant response rating,"[13]; Rate 125 g/ha, Postemergence",3
same,"Plant response rating, Velvetleaf","[13]; Rate 125 g/ha, Preemergence",4
same,"Plant response rating, Velvetleaf","[13]; Rate 250 g/ha, Postemergence",5
same,"Plant response rating, Velvetleaf","[13]; Rate 250 g/ha, Preemergence",7
same,"Plant response rating, Wheat",[14]; [20],0
same,Wheat plant response rating,"[14]; Rate 62 g/ha, Postemergence",3
same,Wheat plant response rating,"[14]; Rate 125 g/ha, Postemergence",3
same,"Plant response rating, Wheat","[14]; Rate 125 g/ha, Preemergence",0
same,"Plant response rating, Wheat","[14]; Rate 250 g/ha, Postemergence",4
same,"Plant response rating, Wheat","[14]; Rate 250 g/ha, Preemergence",3
same,"Plant response rating, Wild oats",[15]; [20],1
same,Wild oats plant response rating,"[15]; Rate 62 g/ha, Postemergence",2
same,Wild oats plant response rating,"[15]; Rate 125 g/ha, Postemergence",2
same,"Plant response rating, Wild oats","[15]; Rate 125 g/ha, Preemergence",2
same,"Plant response rating, Wild oats","[15]; Rate 250 g/ha, Postemergence",4
same,"Plant response rating, Wild oats","[15]; Rate 250 g/ha, Preemergence",3
same,Barnyardgrass plant response rating,[16]; [21],2
same,Barnyardgrass plant response rating,[16]; [22],3
same,"Plant response rating, Barnyardgrass",[16]; [23],6
same,Ducksalad plant response rating,[17]; [21],2
same,Ducksalad plant response rating,[17]; [22],2
same,"Plant response rating, Ducksalad",[17]; [23],3
same,Rice plant response rating,[18]; [21],0
same,Rice plant response rating,[18]; [22],0
same,"Plant response rating, Rice",[18]; [23],2
same,S. Flatsedge plant response rating,[19]; [21],3
same,S. Flatsedge plant response rating,[19]; [22],3
same,"Plant response rating, S. Flatsedge",[19]; [23],4
